Results on one substance are retold here after US9546196B2, “Compositions and methods of treatment of cancers” (The University of Toledo, priority 2009, dated 2017).

Data set [1] deals with ACHN human kidney cancer cells. Kind of data set: ACHN cell density with peptide. To be noted: even at 100 μM; 2 or 4 days; no endogenous sGCα1. In kind it is cell-based. How it is done:
FIG. 17C: ACHN human kidney cancer cells were grown for 2 or 4 days in the presence of increasing concentration of Peptide A-8R [SEQ ID NO: 1] or vehicle and then cell density was measured.

In a further data set the test system is Caspase 3/7. Description: Caspase 3/7 activity in LNCaP cells. The format is cell-based. To be noted: 10 mM Peptide A-8R. As to the method: FIG. 18A: LNCaP cells were grown for 1-24 hrs in the presence of vehicle, […] Peptide A-8R [SEQ ID NO: 1], or […] Etoposide and then measured for Caspase 3/7 activity.
To determine if the cytotoxicity of Peptide A-8R [SEQ ID NO: 1] is through apoptosis, LNCaP cells were monitored for Caspase 3/7 activity. […] Thus, Peptide A-8R [SEQ ID NO: 1] was able to induce Caspase 3/7 activity much faster than the well-studied apoptosis-inducing drug Etoposide. To confirm that the Peptide was killing cells via apoptosis, the inventors used the pan-caspase inhibitor Z-VAD-FMK.

Data set [2] has as its system PC-3 prostate cancer cells. Kind of data set: PC-3 cell density with peptide. In kind it is cell-based. Conditions: even at 100 μM; 3 or 6 days; no endogenous sGCα1. How it is done:
FIG. 17A: PC-3 prostate cancer cells were grown for 3 or 6 days in the presence of increasing concentration of Peptide A-8R [SEQ ID NO: 1] or vehicle and then cell density was measured.

In a further data set the test system is LNCaP cell culture. In kind it is cell-based. The source says:
In one non-limiting example, Peptide A-8R [SEQ ID NO: 1] can be truncated to a smaller peptide that retains the same type of biological activity profile. In certain embodiments, truncating Peptide A-8R [SEQ ID NO: 1] results in greater potency upon conversion of some of the pharmacophore functionalities to peptidomimetic groups that can, in turn, enhance key interactions by lowering the net binding energy. In one experiment, Peptide A-8R [SEQ ID NO: 1] was divided into two parts, using the central proline residue as the division point. […] A minimum number of amino acids desired for cytotoxicity was then identified. […] The following Peptide A truncated and derivative probes were synthesized and evaluated for their effect on cytotoxicity after 3- and 6-day exposures:
The following table lists cell culture data for truncated Peptide A peptides. The amino acid sequences and IC50 values in μM concentrations depict cytotoxicity after 3- and 6-day exposures (“NotA” means not active). “8R” [SEQ ID NO: 6] signifies that 8 arginines are present on the carboxy terminus to mediate membrane translocation. The data has shown that the 8R terminus [SEQ ID NO: 6] can be either as the free carboxy (—OH) or amide (—NH2) with no alteration of permeation or observed activity.
The table below lists LNCaP cell culture data for various Peptide A derivatives, displaying the observed IC50 values in μM concentrations after 3- and 6-day exposures.

Another data set concerns LNCaP xenograft tumors. Description: LNCaP xenograft tumors in nude mice, intratumoral injection. In kind it is in vivo. As to the method:
FIG. 20: Peptide A-8R [SEQ ID NO: 1] inhibits the growth of LNCaP prostate xenograft tumors. LNCaP xenograft tumors were grown in nude mice to a size of 200-400 cubic mm and then treated with daily intratumoral injections of either Peptide A-8R [SEQ ID NO: 1] (80 mg/kg of animal) or Vehicle (DMSO) for seven days, after which the tumors were left untreated and allowed to grow for an additional 2-3 weeks. Each point represents the average tumor size of three animals plus/minus the standard deviations. Note that open squares or circles represent no treatment of either Peptide A-8R [SEQ ID NO: 1] or vehicle.
This was analyzed using LNCaP xenograft tumors established in nude mice and direct injection of Peptide A-8R [SEQ ID NO: 1] (FIG. 20).

Regarding “Ac-TFCKAFPFHIIRRRRRRRR-OH [Peptide A-8R]”, the “effect on ACHN cells” value in data set [1] is given as “little to no effect”. Moreover, the figures for the “increase in caspase activity” value with Caspase 3/7 (after 8 hrs) and in the data set with Caspase 3/7 (by 1 hour) were about 4 fold and 2 fold, respectively. Moreover, the caspase activity entry with Caspase 3/7 (after 24 hrs) is given as “diminished to Vehicle levels”. Also, in data set [2], the “effect on PC-3 cells” value is given as “little to no effect”. Also, in the data set with LNCaP cell culture, the Cytotoxicity entry was “Yes”. In addition, the “tumor growth during treatment” value in the data set with LNCaP xenograft tumors (80 mg/kg daily intratumoral, seven daily injections) is “strongly inhibited tumor growth and actually caused tumor regression”. Also, the “tumor growth after stopping peptide injection” value in the data set with LNCaP xenograft tumors (additional 2-3 weeks untreated, versus Vehicle) is recorded as “grew significantly more slowly”.
